Results: patent US20180098959A1, “METHODS FOR TREATING CANCER” (BOSTON BIOMEDICAL, INC., priority 2015, published 2018)
Like-named read-outs stand apart in the source and are kept apart here.

What was measured:
mCRC = conditions: Single Agent, panitumumab value for K-Ras WT, cited from earlier work
FaDu cancer stem cells = test: stemness gene expression versus chemo- and targeted therapeutics; format: cell-based; conditions: 24 hours, 2-acetylnaphtho[2,3-b]furan-4,9-dione 2 mM, sunitinib 20 mM, gemcitabine 2 mM, carboplatin 32 mM, FIGS. 4(A)-(D)
Description: FIGS. 4(A)-(D) depict FaDu cancer stem cells that were treated for 24 hours with DMSO and: (i) 2-acetylnaphtho[2,3-b]furan-4,9-dione (2 mM) (FIG. 4(A)), (ii) sunitinib (20 mM) (FIG. 4(B)), (iii) gemcitabine (2 mM) (FIG. 4(C)), or (iv) carboplatin (32 mM) (FIG. 4(D)).

p-Stat3 and β-catenin = test: cancer stem cell markers in cancer xenograft models (immunofluorescence); format: in vivo, athymic nude mice; conditions: cancer xenograft tumor model, tumors harvested after first dosing; FIG. 6
Description: The effects of 2-acetylnaphtho[2,3-b]furan-4,9-dione on cancer stem cell markers was also examined in cancer xenograft models with and without irinotecan. Human cancer cells were subcutaneously implanted into the right flank of 5-7 weeks old female athymic nude mice. When tumor size reached 200 mm^3, animals were treated with 2-acetylnaphtho[2,3-b]furan-4,9-dione, irinotecan, or a combination of 2-acetylnaphtho[2,3-b]furan-4,9-dione and irinotecan. Tumors were harvested after first dosing.
The harvested tissues were fixed in 3.7% neutral buffered formaldehyde at 4° C. for overnight. The paraffin was embedded, cut to about 5 microns, and affixed onto positively charged slides. After being baked and de-paraffinized, the slides with tumor or control tissues were incubated in 10 mM Sodium Citrate (pH 6.0) for 10 minutes. After antigen retrieval, slides were probed with primary antibodies P-STAT3 (rabbit, Cell Signaling, 1:100), 13-Catenine (mouse, Santa Cruz, 1:400) at 4° C. overnight, and then Alexa Fluor fluorescent dyes-conjugated secondary antibodies (1:500, Invitrogen). After mounting with ProLong mounting medium with DAPI (Invitrogen), the slides were examined under a Zeiss fluorescence microscope with 20× objective, and analyzed with Zen software.

CCCCCOC(=O)Nc1nc(=O)n([C@@H]2O[C@H](C)[C@@H](O)[C@H]2O)cc1F [Capecitabine, capecitabine]
Historical DCR (in Evaluable patients with mCRC) (mCRC): 15% | Historical DCR (in Evaluable patients with mCRC) (mCRC; listed as capecitabine): 15%

CCc1c2c(nc3ccc(OC(=O)N4CCC(N5CCCCC5)CC4)cc13)-c1cc3c(c(=O)n1C2)COC(=O)[C@]3(O)CC [irinotecan, reference compound]
expression of self-renewal / CSC genes (β-Catenin, Nanog, Smo, Sox2) (FaDu cancer stem cells): increased CSC gene expression in certain cases | staining for stem cell markers (p-Stat3 and β-catenin) (p-Stat3 and β-catenin): enhanced staining

CNC(=O)c1cc(Oc2ccc(NC(=O)Nc3ccc(Cl)c(C(F)(F)F)c3)c(F)c2)ccn1 [regorafenib]
expression of self-renewal / CSC genes (β-Catenin, Nanog, Smo, Sox2) (FaDu cancer stem cells): increased CSC gene expression in certain cases

O=C1[O][Pt]2([NH][C@@H]3CCCC[C@H]3[NH]2)[O]C1=O [oxaliplatin]
expression of self-renewal / CSC genes (β-Catenin, Nanog, Smo, Sox2) (FaDu cancer stem cells): increased CSC gene expression in certain cases

N.N.O=C([O-])C1(C(=O)[O-])CCC1.[Pt+2] [carboplatin]
expression of self-renewal / CSC genes (β-Catenin, Nanog, Smo, Sox2) (FaDu cancer stem cells): increased CSC gene expression in certain cases
